According to patent US20190117770A1, “USES OF IMMUNOCONJUGATES TARGETING CD138” (Biotest AG, priority 2011, published 2019):
Values joined by “and” are separate entries in the source; they are usually repeats but may differ in a detail not shown here. Equal entries are not always repeated. Where two headings read alike, the source gives them in different places.

How the values were obtained:
Lung carcinoma = Lung carcinoma xenograft; format: in vivo, NMRI (nude) mice; conditions: both dose groups (4 mg/kg and 23.85 mg/kg once per week)
Procedure: (§1) These tumors display similar characteristics as the patient tumors, since they are passaged in mice at low numbers, to retain original characteristics.
NMRI (nude) mice are implanted with a Lung carcinoma (determined via IHC analysis as CD138 strong positive).
Tumor diameters are measured two times a week.

[1] = Half life in human plasma ex vivo; format: in vitro ADME
[2] = tested on: metastatic patient tissues derived from a bladder tumor; test: Metastatic bladder tumor xenograft; format: in vivo, NMRI (nude) mice; conditions: both dose groups (4 mg/kg and 23.85 mg/kg once per week)
Source text: as §1
To investigate metastatic tumors, NMRI (nude) mice were implanted with a metastatic patient tissues derived from a bladder tumor (determined via IHC analysis as CD138 strong positive).

CD138+ MOLP-8 cells = test: WST cell viability assay; format: cell-based
Procedure: CD138^+ MOLP-8 cells were seeded in flat bottom plates at 3000 cells/well. CD138^− BJAB control cells were seeded at 1000 cells/well. WST reagent (water-soluble tetrazolium salt, ROCHE) was added in order to measure cell viability according to the manufacturer's instruction (ROCHE). The reagent was incubated for 7.5 h on MOLP-8 cells and for 2 h on BJAB cells. The fraction of surviving cells was calculated based on the optical densities measured in a microplate reader using standard procedures.

[3] = Plasma level of BT062 (PK ELISA), repeated multiple dose; format: in vivo, human
Procedure: Theoretical Cmax was Calculated According to the Following Assumed Parameters: […]
The same evaluation was performed during treatment cycle 4.
The wells of a microtiter plate are first coated with anti-maytansinoid (anti-DM4) antibody overnight at 2-8° C. and after blocking with assay buffer (0.5% BSA/TBS) incubated on the next day with plasma samples. These are diluted beforehand at least 1:100 in assay buffer. […] After incubation, unbound material is removed by washing. […] Unbound secondary antibody is removed by another washing step. After this, TMB substrate solution is pipetted into all the wells. […] The color reaction is ended using a stop solution, which causes the color to change from blue to yellow. The final measurement is carried out with a photometer at a wavelength of 450 nm.
The relationship between concentration and optical density is evaluated using Magellan V6.6 software.

Jurkat = test: Sensitivity of cell lines towards BT062; format: cell-based; conditions: T cell lymphoma
[4] = tested on: MOLP8 multiple myeloma cells; test: MOLP8 xenograft, combination BT062 and VELCADE; format: in vivo, mice
Source text: The ACTIVITY RATING is another measurement for the effects of a combination. This rating is based on the Log10 cell kill
where (T-C) or tumor growth delay, is the median time in days required for the treatment group (T) and the control group (C) tumours, to reach a predetermined size (600 mm^3).

[5] = tested on: plasma cell myeloma cell line L363; format: in vivo, NOD/SCID mice; conditions: 4 mg/kg BT062 alone, once weekly
Procedure: In this model, a highly aggressive CD138 expressing plasma cell myeloma cell line L363 was subcutaneously implanted into NOD/SCID mice. Treatment started when tumors reached a size of approx. 100 mm^3. […] Tumor size was measured once weekly.

[6] = tested on: MOLP 8 human myeloma cells
Source text: Female SCID mice were subcutaneously inoculated with MOLP 8 human myeloma cells. […] A control group of animals received phosphate buffered saline (PBS) using the same schedule and route of administration. Tumor growth was monitored by measuring tumor size and calculated with the formula length×width×height×1/2, determined on days 10, 14, 18 and 21.
FTV: Fractional tumor volume=mean tumor volume (test)/mean tumor volume (control)

[7] = tested on: pancreatic tumor tissue PAXF 736; test: Pancreas carcinoma xenograft; format: in vivo, NMRI mice; conditions: for T/C (%): day 52
Procedure: as §1
Tumor diameters have been measured two times a week. Tumor volumes were calculated according to the formula axbxb/2 where “a” is the longest axis and “b” the perpendicular axis thereto.
Tumor inhibition for a particular day (T/C in %) was calculated from the ratio of the median RTV (relative tumor volume) values of test versus control groups multiplied by 100%.

## BT062
Lung carcinoma
  tumor response: Complete remission
[1]
  plasma half life: 14 days
[2]
  tumor response: Complete remission
CD138+ MOLP-8 cells; FIG. 7 (D)
  cytotoxicity after preincubation with molar excess of unconjugated nBT062: substantially blocked
CD138+ MOLP-8 cells; five days, FIG. 7
  cytotoxic activity: very similar
[3]; 40 mg/m^2 weekly
  % of theoretical Cmax, Mean (%): 33%
[3]; 40 mg/m^2 weekly, table rows = cycles C1 to C4
  Mean conc. missing to theor. Cmax per Cycle: 19.5
[3]; 50 mg/m^2 weekly
  % of theoretical Cmax, Mean (%): 33%
[3]; 50 mg/m^2 weekly, table rows = cycles C1 to C4
  Mean conc. missing to theor. Cmax per Cycle: 23.3
[3]; 65 mg/m^2 weekly
  % of theoretical Cmax, Mean (%): 60%
[3]; 65 mg/m^2 weekly, cycle/day C1 D1 to C3 D15
  % of theoretical Cmax: 43% and 63% and 72% and 52% and 61% and 71% and 73%
[3]; 65 mg/m^2 weekly, table rows = cycles C1 to C3
  Mean conc. missing to theor. Cmax per Cycle: 15.3
[3]; 80 mg/m^2, 2 hr after completion of administration on days 0, 7, 14
  Plasma level/Mean: 22910 ng/mL
[3]; 80 mg/m^2 weekly, cycle/day C1 D1 to C3 D15
  % of theoretical Cmax: 42% and 45% and 50% and 43% and 39% and 53% and 41%
[3]; 80 mg/m^2 weekly, table rows = cycles C1 to C3
  Mean conc. missing to theor. Cmax per Cycle: 30.3
[3]; 100 mg/m^2 weekly
  % of theoretical Cmax, Mean (%): 108%
[3]; 120 mg/m^2 weekly
  % of theoretical Cmax, Mean (%): 69%
[3]; 120 mg/m^2 weekly, cycle/day C1 D1 to C2 D15
  % of theoretical Cmax: 69% and 74% and 79% and 62% and 67%
[3]; 3×50 mg/m^2 on days 1, 8, 15
  actual Cmax as % of theoretical Cmax: < 50%
Jurkat
  IC50: 39 nM
[4]; BT062 100 ug/kg
  (T − C): 5.5 days
  Regressions Complete: 0/6
  Regressions Partial: 0/6
  Result: Inactive
  Tumor free survivors day 67: 0/6
  log cell kill: 0.5
[4]; BT062 100 ug/kg, Day 1
  T/C (%): 43%
[4]; BT062 200 ug/kg
  (T − C): 14.5 days
  Regressions Complete: 0/6
  Regressions Partial: 1/6
  Result: Active
  Tumor free survivors day 67: 0/6
  log cell kill: 1.3
[4]; BT062 200 ug/kg, Day 1
  T/C (%): 11%
[4]; BT062 400 ug/kg
  (T − C): 31.5 days
  Regressions Complete: 2/6
  Regressions Partial: 4/6
  Result: highly active (A Log10 cell kill of higher than 2.8)
  Tumor free survivors day 67: 0/6
  log cell kill: 2.8
[4]; BT062 400 ug/kg, Day 1
  T/C (%): 7%
[4]; last line: BT062 400 ug/kg
  (T − C): 36.5 days
  Regressions Complete: 0/6
  Regressions Partial: 6/6
  Result: highly active (A Log10 cell kill of higher than 2.8)
  Tumor free survivors day 67: 0/6
  log cell kill: 3.2
[4]; last line: BT062 400 ug/kg Day 1
  T/C (%): 7%
[5]
  tumor growth: active in reducing the tumor growth
[6]; BT062 100 ug/kg
  Regressions Complete: 0/6
  Regressions Partial: 0/6
  Result: Active
  T/C (%) (DAY 17): 35%
  Tumor free survivors day 77: 0/6
[6]; BT062 200 ug/kg
  Regressions Complete: 0/6
  Regressions Partial: 0/6
  Result: Active
  T/C (%) (DAY 17): 14%
  Tumor free survivors day 77: 0/6
[6]; BT062 400 ug/kg
  Regressions Complete: 1/6
  Regressions Partial: 4/6
  Result: highly active (A Log10 cell kill of higher than 2.8)
  T/C (%) (DAY 17): 9%
  Tumor free survivors day 77: 0/6
[7]; 13.25 mg/kg
  complete remission obtained, days after tumor implantation: 35 days
  mice alive after 52 days: 8/8
[7]; 13.25 mg/kg once weekly
  T/C (%): 0.0%
[7]; 23.85 mg/kg
  complete remission obtained, days after tumor implantation: 28 days
[7]; 23.85 mg/kg once weekly
  T/C (%): 0.0%
[7]; both treatment groups
  tumor regrowth in treatment free observation phase: no tumor regrowth
[7]; mouse, in vivo
  side effects: No side effects
